Assay results: US11161819B2, “Substituted tetrahydroisoquinoline compounds useful as GPR120 agonists” (Merck Sharp & Dohme Corp., priority 2016, dated 2021)

Target: T1, human GPR120 (Homo sapiens, UniProt Q5NUL3)
T1 construct: expressed in transfected cells
T1 sequence (Q5NUL3 1-361): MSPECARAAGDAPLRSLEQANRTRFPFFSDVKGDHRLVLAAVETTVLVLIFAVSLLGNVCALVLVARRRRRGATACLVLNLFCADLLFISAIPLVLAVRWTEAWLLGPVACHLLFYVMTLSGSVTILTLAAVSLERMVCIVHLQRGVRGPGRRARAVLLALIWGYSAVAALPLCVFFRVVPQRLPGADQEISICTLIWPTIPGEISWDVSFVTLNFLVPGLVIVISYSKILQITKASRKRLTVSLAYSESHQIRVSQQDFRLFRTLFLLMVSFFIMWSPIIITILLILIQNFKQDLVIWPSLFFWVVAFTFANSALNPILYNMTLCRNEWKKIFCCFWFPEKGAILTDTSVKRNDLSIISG
Assay: Human GPR120 IP1 Assay (inositol phosphate turnover, CisBio IP-One kit)
Type: cell-based
Settings: IP1 accumulation in CHO-K1 cells stably expressing the short form of human GPR120; 60 min compound incubation; 4-parameter fit; read-out: hGPR120 EC50
Excerpt: Human GPR120 IP1 Assay Principle
The binding of small molecule agonists to the G-protein-coupled receptor GPR120 activates phospholipase C, and leads to the generation of inositol 1,4,5-trisphosphate (InsP3 or IP3). IP3 is subsequently de-phosphorylated to IP1, which accumulates in cells and is stable in the presence of lithium chloride.
In the present method, agonist-induced activation of the human GPR120 receptor was monitored by measuring the accumulation of IP1 in CHO-K1 cells that were stably expressing the short form of human GPR120 (Accession #NM_001195755). Following agonist addition, GPR120 activation and subsequent accumulation of IP1 was measured using a homogeneous Time Resolved Fluorescence-based ELISA commercially available from CisBio (IP-one ELISA Kit). The IP-One ELISA was a competitive immunoassay which uses IP1 labeled with […] and a terbium cryptate-labeled anti-IP1 monoclonal antibody. […] The signal loss was then back calculated to IP1 concentration using an IP1 standard curve. Determination of IP1 concentration was a direct measure of GPR120 activation and was used to determine compound potency (EC50).
Generation of GPR120-Expressing Cells:
Human GPR120 stable cell-lines were generated in CHO cells. The expression plasmids were transfected using lipofectamine (Life Technologies) following manufacturer's instructions. Stable cell-lines were generated following drug selection and single cell cloning.
Inositol Phosphate Turnover (IP1) Assay:
The assay was performed in 384-well format. CHO cells stably expressing human GPR120 were plated at […] per well in growth medium (DMEM/F12, 10% fetal calf serum). Cell plates were then incubated 16 hours at 37 degrees in a 5% CO2 incubator. Measurement of Inositol Phosphate Turnover (IP1) was performed using the CisBio IP-One kit (Part number 62IPAPEB). After the 16 hour incubation, the growth media was removed by centrifugation using the BlueWasher (AusWasher GUI Ver. v1.0.1.8) Protocol #21-“Light Dry” and 10 ul of stimulation buffer (prepared as described in the kit) was added to each well. In a separate plate, compounds were diluted in DMSO (200-fold over the final concentration in the assay well) and 50 nl was acoustically transferred to the appropriate well in the assay cell plate. The plates were then incubated for 60 minutes at 37 degrees in a 5% CO2 incubator. 10 ul of detection buffer (also prepared as described in the IP-One kit) was added to each well and the plates were incubated at room temperature for 60 minutes in the dark. The plates were then read in a Perkin Elmer EnVision or equivalent reader able to measure FRET. Fluorescent ratio of emission at 665 and 620 nm was then converted to the IP1 concentration by back calculating from an IP1 standard curve prepared at the time of the assay. The data was normalized to % activity using a reference compound, and the EC50 values were determined using a standard 4-parameter fit.

Row | EC50 [nM] | Molecule
1 | 167 | O=C(O)CCc1ccc2c(c1F)CCN(c1cccc(C3CC3)n1)C2 [Example 154, 3-[2-(6-cyclopropylpyridin-2-yl)-5-fluoro-1,2,3,4-tetrahydroiso-quinolin-6-yl]propanoic acid]
2 | 87 | N#Cc1c(F)cc(OC2CCC2)cc1N1CCc2c(ccc(CCC(=O)O)c2Cl)C1 [Example 153, 3-{5-chloro-2-[2-cyano-5-(cyclobutyloxy)-3-fluorophenyl]-1,2,3,4-tetrahydroisoquinolin-6-yl}-propanoic acid]
3 | 107 | N#Cc1cc(OC(F)(F)F)cc(N2CCc3c(ccc([C@H]4C[C@@H]4C(=O)O)c3F)C2)c1F [Example 116, (1S,2S)-2-{2-[3-cyano-2-fluoro-5-(trifluoromethoxy)phenyl]-5-fluoro-1,2,3,4-tetrahydroiso-quinolin-6-yl}cyclopropane-carboxylic acid]
4 | 118 | O=C(O)C1CC1c1ccc2c(c1)CCN(c1cc(OC(F)(F)F)ccc1F)C2 (stereo not drawn) [Example 102, 2-{2-[2-fluoro-5-(trifluoromethoxy)phnyl]-1,2,3,4-tetrahydroisoquinolin-6-yl}cyclopropane-carboxylic acid]
5 | 122 | N#Cc1cc(OC(F)(F)F)cc(N2CCc3c(ccc([C@H]4C[C@@H]4C(=O)O)c3F)C2)c1F [Example 107, (1S,2S)-2-(2-(3-cyano-2-fluoro-5-(trifluoromethoxy)phenyl)-5-fluoro-1,2,3,4-tetrahydroisoquinolin-6-yl)cyclopropanecarboxylic acid]
6 | 834 | Cc1ccc(-n2nc(C)c(F)c2N2CCc3cc(C4CC4C(=O)O)ccc3C2)cc1 (stereo not drawn) [Example 96, 2-{2-[4-fluoro-3-methyl-1-(4-methylphenyl)-1H-pyrazol-5-yl]-1,2,3,4-tetrahydroisoquinolin-6-yl}cyclopropanecarboxylic acid]
7 | 463 | O=C(O)CCc1ccc2c(c1)CCN(c1cc(Cl)c(C(F)(F)F)c(Cl)c1)C2 [Example 40, 3-{2-[3,5-dichloro-4-(trifluoro-methyl)phenyl]-1,2,3,4-tetrahydro-isoquinolin-6-yl}propanoic acid]
8 | 9740 | N#Cc1c(F)cc(OC2CCC2)cc1N1CCc2c(ccc([C@H]3C[C@@H]3C(=O)O)c2F)C1 [Example 126, (1S,2S)-2-{2-[2-cyano-5-(cyclo-butyloxy)-3-fluorophenyl]-5-fluoro-1,2,3,4-tetrahydroiso-quinolin-6-yl}cyclopropane-carboxylic acid]
9 | 569 | O=C(O)CCc1ccc2c(c1)CCN(c1cncc(OC3CCC3)n1)C2 [Example 41, 3-{2-[6-(cyclobutyloxy)pyrazin-2-yl]-1,2,3,4-tetrahydroiso-quinolin-6-yl}propanoic acid]
10 | 184 | CO[C@H]1C[C@H](Oc2cc(C#N)c(F)c(N3CCc4cc(CCC(=O)O)ccc4C3)c2)C1 [Example 34, 3-(2-{3-cyano-2-fluoro-5-[(trans-3-methoxycyclobutyl)oxy]phenyl}-1,2,3,4-tetrahydroisoquinolin-6-yl)propanoic acid]
11 | 5880 | CC(Cc1ccc2c(c1F)CCN(c1cc(OC(F)(F)F)ccc1F)C2)C(=O)O (stereo not drawn) [Example 77, 3-{5-fluoro-2-[2-fluoro-5-(trifluoromethoxy)phenyl]-1,2,3,4-tetrahydro-isoquinolin-6-yl}-2-methyl-propanoic acid]
12 | 169 | COc1cc(F)c(N2CCc3cc(CCC(=O)O)ccc3C2)cc1Oc1ccc(C)cn1 [Example 28, 3-(2-{2-fluoro-4-methoxy-5-[(5-methylpyridin-2-yl)oxy]phenyl}-1,2,3,4-tetrahydroisoquinolin-6-yl)propanoic acid]

The next lines start with the molecule.

Row | Molecule | EC50 [nM]
13 | 3-{2-[2-cyano-5-(cyclobutyloxy) phenyl]-1,2,3,4-tetrahydroiso- quinolin-6-yl}propanoic acid [Example 46] | 5390
14 | Cc1ccc(-n2nc(C)c(C#N)c2N2CCc3cc(OCCO)ccc3C2)cc1 [Example 130, 5-(6-(2-hydroxyethoxy)-3,4-dihydroisoquinolin-2(1H)-yl)-3-methyl-1-(p-tolyl)-1H-pyrazole-4-carbonitrile] | 87
15 | Cc1nn(-c2ccc(F)cc2)c(N2CCc3cc(C4CC4C(=O)O)ccc3C2)c1F (stereo not drawn) [Example 92, 2-{2-[4-fluoro-1-(4-fluorophenyl)-3-methyl-1H-pyrazol-5-yl]-1,2,3,4-tetrahydroisoquinolin-6-yl} cyclo-propanecarboxylic acid] | 482
16 | O=C(O)CCc1ccc2c(c1F)CCN(c1cc(C(F)(F)C3CCC3)ccc1F)C2 [Example 56, 3-(2-(5-(cyclobutyldifluoromethyl)-2-fluorophenyl)-5-fluoro-1,2,3,4-tetrahydro-isoquinolin-6-yl)propanoic acid] | 40
17 | O=C(O)CCc1ccc2c(c1)CCN(c1cc3c(C(F)(F)F)noc3cc1F)C2 [Example 29, 3-{2-[6-fluoro-3-(trifluoromethyl)-1,2-benzisoxazol-5-yl]-1,2,3,4-tetrahydroisoquinolin-6-yl}-propanoic acid] | 171
18 | N#Cc1c(F)cc(OC2CCC2)cc1N1CCc2cc(CCC(=O)O)ccc2C1 [Example 55, 3-{2-[2-cyano-5-(cyclobutyloxy)-3-fluorophenyl]-1,2,3,4-tetrahydro-isoquinolin-6-yl}propanoic acid] | 25
19 | O=C(O)[C@@H]1C[C@H]1c1ccc2c(c1F)CCN(c1cc(OC3CCC3)cc(Cl)c1F)C2 [Example 123, (1R,2R)-2-{2-[3-chloro-5-(cyclobutyloxy)-2-fluorophenyl]-5-fluoro-1,2,3,4-tetrahydroisoquinolin-6-yl}cyclopropane-carboxylic acid] | 766
20 | Cc1ccc(Oc2cc(C(F)F)c(F)c(N3CCc4cc(CCC(=O)O)ccc4C3)c2)nc1 [Example 16, 3-(2-{3-(difluoromethyl)-2-fluoro-5-[(5-methylpyridin-2-yl)oxy]phenyl}-1,2,3,4-tetrahydroiso-quinolin-6-yl)propanoic acid] | 22
21 | CC(Cc1ccc2c(c1)CCN(c1cc(OC(F)(F)F)ccc1F)C2)C(=O)O (stereo not drawn) [Example 52] | 510
22 | O=C(O)CCc1cc2c(cc1F)CN(c1cc(OC3CCC3)cc(F)c1F)CC2 [Example 131, 3-(2-(5-cyclobutoxy-2,3-difluorophenyl)-7-fluoro-1,2,3,4-tetrahydro-isoquinolin-6-yl)propanoic acid] | 174
23 | Cc1cc(-c2cscn2)nc(N2CCc3c(ccc(CCC(=O)O)c3F)C2)c1C#N [Example 147, 3-[2-(3-Cyano-4-methyl-6-thiazol-4-yl-pyridin-2-yl)-5-fluoro-1,2,3,4-tetrahydro-isoquinolin-6-yl]-propionic acid] | 141
24 | COc1cc(Cl)c(N2CCc3cc(CCC(=O)O)ccc3C2)cc1OC1CCC1 [Example 24, 3-{2-[2-chloro-5-(cyclobutyloxy)-4-methoxyphenyl]-1,2,3,4-tetrahydroisoquinolin-6-yl}propanoic acid] | 61
25 | COc1cc(OC2CCC2)nc(N2CCc3c(ccc(CCC(=O)O)c3F)C2)c1F [Example 148, 3-(2-(6-cyclobutoxy-3-fluoro-4-methoxypyridin-2-yl)-5-fluoro-1,2,3,4-tetra-hydroisoquinolin-6-yl)propanoic acid] | 9
26 | COc1ccc(-n2nc(C)c(C#N)c2N2CCc3cc(CCCCC(=O)O)ccc3C2)cc1 [Example 133, 5-{2-[4-cyano-1-(4-methoxyphenyl)-3-methyl-1H-pyrazol-5-yl]-1,2,3,4-tetrahydroisoquinolin-6-yl} pentanoic acid] | 50
27 | Cc1ccc(-n2nc(C)c(C#N)c2N2CCc3cc(OCCCCO)ccc3C2)cc1 [Example 139, 5-[6-(4-hydroxybutoxy)-3,4-dihydro-isoquinolin-2(1H)-yl]-3-methyl-1-(4-methylphenyl)-1H-pyrazole-4-carbonitrile] | 187
